Laboratory results taken from patent publication US20150164895A1, “DETERMINING SENSITIVITY OF CELLS TO B-RAF INHIBITOR TREATMENT BY DETECTING KRAS MUTATION AND RTK EXPRESSION LEVELS” (GENENTECH, INC., priority 2009, published 2015).
Where “and” joins values, the source holds several entries; their conditions need not be identical. Identical values can stand only once.

Tested on: lung tumor xenografts
Test: Experiment H327: growth in lung tumor xenografts after dosing with B-RAF inhibitor
Format: in vivo, mice
Conditions: H327-2, LXFA 1041/9N4, 100 mg/kg/day po Days 0-20; for Absolute body weight, Median / Relative body weight, Median: group median n 10; for Absolute tumor volume: (a*b*b)/2, Median / Relative tumor volume, Median: group median n 20; for Relative tumor volume: individual tumor
Excerpt: FIGS. 10-18 depict growth in lung tumor xenografts after dosing with GDC-0879.
The data are shown below, and in FIGS. 10-14 for Experiment H331 and FIGS. 15-18 for Experiment H327.

[1] = study day 3, individual animal, listed as G-026887
[2] = study day 7, individual animal, listed as G-026887
[3] = study day 10, individual animal, listed as G-026887
[4] = study day 14, individual animal, listed as G-026887

OCCn1cc(-c2ccc3c(c2)CC/C3=N\O)c(-c2ccncc2)n1 [GDC-0879, 2-{4-[(1E)-1-(hydroxyimino)-2,3-dihydro-1H-inden-5-yl]-3-(pyridine-4-yl)-1H-pyrazol-1-yl}ethan-1-ol]
Survival time (individual animal, listed as G-026887): >20 days (14×) and >21 days (6×) | Absolute body weight, Median (study day 0): 25.1 g | Relative body weight, Median (study day 0): 100.0% | Absolute tumor volume: (a*b*b)/2, Median (study day 0): 88.5 mm3 | Relative tumor volume, Median (study day 0): 100.0% | Relative body weight (study day 0, individual animal): 100.0% | Absolute body weight (study day 0, individual animal, listed as G-026887): 25.4 g and 28.6 g and 24.5 g (2×) and 24.0 g and 25.1 g and 29.8 g and 31.5 g and 25.0 g and 23.6 g | Relative tumor volume (study day 0): 100.0% | Absolute body weight, Median (study day 3): 25.3 g | Relative body weight, Median (study day 3): 99.2% | Absolute tumor volume: (a*b*b)/2, Median (study day 3): 139.8 mm3 | Relative tumor volume, Median (study day 3): 165.4% | Absolute body weight [1]: 25.6 g and 29.4 g and 24.6 g and 23.8 g and 23.6 g and 25.1 g and 29.3 g and 30.4 g and 25.4 g and 22.9 g | Relative body weight [1]: 100.8% and 102.8% and 100.4% and 97.1% and 98.3% (2×) and 100.0% and 96.5% and 101.6% and 97.0% | Relative tumor volume (study day 3, listed as G-026887): 193.9% and 208.9% and 154.7% and 187.7% and 202.6% and 157.6% and 110.0% and 160.2% and 138.1% and 194.2% and 138.9% and 172.0% and 178.9% and 185.0% and 157.3% | Absolute body weight, Median (study day 7): 25.7 g | Relative body weight, Median (study day 7): 101.4% | Absolute tumor volume: (a*b*b)/2, Median (study day 7): 228.0 mm3 | Relative tumor volume, Median (study day 7): 258.8% | Absolute body weight [2]: 25.9 g and 30.9 g and 25.2 g and 24.3 g and 24.4 g and 25.4 g and 29.8 g and 30.5 g and 26.3 g and 22.6 g | Relative body weight [2]: 102.0% and 108.0% and 102.9% and 99.2% and 101.7% and 101.2% and 100.0% and 96.8% and 105.2% and 95.8% | Relative tumor volume (study day 7, listed as G-026887): 452.1% and 329.8% and 300.6% and 260.9% and 376.4% and 256.7% and 340.1% and 324.4% and 232.6% and 248.9% and 223.2% and 293.8% and 281.8% and 209.2% | Absolute body weight, Median (study day 10): 25.5 g | Relative body weight, Median (study day 10): 100.5% | Absolute tumor volume: (a*b*b)/2, Median (study day 10): 305.5 mm3 | Relative tumor volume, Median (study day 10): 388.4% | Absolute body weight [3]: 25.5 g (2×) and 30.4 g and 24.9 g and 24.3 g and 23.8 g and 30.0 g and 30.6 g and 26.1 g and 22.0 g | Relative body weight [3]: 100.4% and 106.3% and 101.6% (2×) and 99.2% (2×) and 100.7% and 97.1% and 104.4% and 93.2% | Relative tumor volume (study day 10, listed as G-026887): 586.9% and 487.4% and 508.8% and 376.4% and 414.0% and 411.7% and 522.2% and 562.3% and 323.9% and 342.2% and 332.9% and 385.0% and 391.8% and 264.6% | Absolute body weight, Median (study day 14): 25.6 g | Relative body weight, Median (study day 14): 101.4% | Absolute tumor volume: (a*b*b)/2, Median (study day 14): 541.3 mm3 | Relative tumor volume, Median (study day 14): 605.0% | Absolute body weight [4]: 25.1 g and 30.7 g and 24.8 g and 24.6 g and 24.4 g and 26.1 g and 31.2 g and 30.4 g and 26.8 g and 22.7 g | Relative body weight [4]: 98.8% and 107.3% and 101.2% and 100.4% and 101.7% and 104.0% and 104.7% and 96.5% and 107.2% and 96.2% | Relative tumor volume (study day 14, listed as G-026887): 964.1% and 811.9% and 593.5% and 515.7% and 743.1% and 697.3% and 1076.6% and 1151.3% and 503.3% and 616.5% and 626.8% and 523.7% and 733.4% and 523.3% | Absolute body weight, Median (study day 17): 25.7 g | Relative body weight, Median (study day 17): 102.7%
